In patent publication US20180064659A1, “AGENTS USEFUL FOR TREATING OBESITY, DIABETES AND RELATED DISORDERS” (The Regents of the University of California, priority 2015, published 2018):
Blank lines part the entries; values can stand above or below the compound they belong to.

Key:
[1] = tested on: FL83B cells; assay: High-throughput in-cell western blot (ICWB) screen for insulin sensitizers, P-Akt over P-ERK; assay type: cell-based, mouse; details: for Score rank in screening assay: 1689 molecules screened
Experimental: Drugs were screened by in-cell western blot (ICWB) for their ability to stimulate phospho-Akt activation in the presence of trace or 10 nM insulin (FIG. 4A). Cells in wells were treated with drugs, and the activity (phosphorylation) of Akt was determined by a phospho-Akt specific antibody. In FIG. 4A, low insulin was given and drugs a, b, c, stimulated Akt activation. In FIG. 4B, 10 nM insulin was given and a, b, and c stimulated signaling over background, and d and […] inhibited. […] Drugs were primarily screened for their ability to promote insulin-dependent stimulation of (phospho)Akt, then secondarily screened for lack of activity to stimulate (phospho) Erk, or a high Akt/Erk ratio. Such drugs are expected to cause insulin sensitivity, resistance to obesity, and longevity. Some drugs having these desired characteristics are Shc inhibitors.
Primary ICWB was performed as follows: FL83B cells were seeded on 384 well plates, 10,000 cells per well in F-12 media supplemented with 10% FBS and 25 mM glucose; 48 hours later the media was replaced with F-12, 25 mM glucose without FBS for sixteen hours; cells were supplemented with assigned drug at desired concentration for 1 hour in duplicate and then, the cells were stimulated with desired concentration of insulin for ten minutes for Akt activation and fifteen minutes for ERK activation measurements. After that time the media was removed and replaced with fixing solution of 5% Formaldehyde in PBS, pH=7.4, 30 minutes later, the fixing solution was replaced with the permeabilization buffer, 0.1% triton X100 in PBS for 40 minutes. […] After the incubation with the secondary antibodies for one hour at room temperature, the wells were washed again two times with the 0.1% tween-20 in PBS and scanned on the Li-Cor Odyssey infrared scanner; images were analyzed with the Li-Cor Odyssey software. […] Phospho-Akt, Phospho-ERK signals than were normalized by tubulin signals in each well and the densitometric results were analyzed to identify drugs which improved metabolic insulin sensitivity without inducing the mitogenic ERK activation. […]

[2] = tested on: mice; assay: Insulin tolerance test (ITT) and basal blood glucose in mice; assay type: in vivo, mouse; details: for Insulin sensitivity in vivo (ITT): PO 20 and 50 mg/kg in peanut butter, five days
Experimental: Insulin Tolerance Test (ITT) and Glucose Tolerance Test (GTT) Protocol for FIG. 2C: Groups of age/sex matched mice of Control and ShcKO genotypes were food deprived for four hours and challenged with I.P. injection of insulin, and glucose concentration was determined in blood exactly at indicated time-points. Decrease and recovery of blood glucose was calculated as a % of basal level (the time-point before insulin injection). Basal levels of glucose were measured in triplicate for each mouse. For the GTT, the same groups of mice were fasted during fourteen hours and challenged with glucose injection I.P., analogously the blood glucose concentrations were measured.
In-vivo drugs testing to improve the insulin sensitivity of periphery for FIG. 6D, E: Groups of mice, ten for the experimental drug treatment and 14 for the placebo treatment were subject for I.P. administration of a drug or placebo solutions daily during four days. Acarbose, a known drug which decreases blood glucose concentration was used as a control. The insulin tolerance test, ITT was performed on the mice as described previously, in Example 2.
(§1) Sensogramms were obtained, and response [nm] for each concentration was plotted against log concentration of idebenone. Sigmoidal, variable slope fitting analysis was performed using GraphPad Prism Software (GraphPad Software, Inc., La Jolla, Calif.). […] Cells were stimulated with 0.2 nM insulin for 10 minutes, and Western analyzed for induction of Akt and ERK. Insulin dependent activation of Akt is presented as fold change over vehicle control, and plotted against log concentration of idebenone; tubulin signal was used for normalization between biological samples. Sigmoidal dose-response (variable slope) fitting analysis was performed, EC50, hill slope, and top response were identified, as described above, and are indicated on the graph. p-value was calculated by testing R^2 for significance for N=65. […] Idebenone at indicated dose was given to animals 30 minutes before dark phase for five days. At the day of Insulin Tolerance Test (ITT) additional dose of idebenone was given to animals two hours prior to insulin injection. For ITT, the food was deprived at 7 am (the beginning of light phase), basal glucose was measured at 11 am, and insulin was administrated at 0.8 U/kg dose; blood glucose was recorded and expressed as % of baseline, and plotted against time. […] Software (CambridgeSoft Corporation, Waltham, Mass.), and virtually docked to Shc-PTB using iGEMDOCK software (BioXGEM Lab, National Chiao-Tung University Hsinchu, Taiwan, R.O.C), and, MOL file was generated. Three dimensional structure of PTB domain of Shc was obtained from Protein Data Bank (http://www.rcsb.org/).

[3] = target: T1, Shc-PTB domain (Homo sapiens, UniProt P29353); assay: Octet RED 384 binding to p52Shc protein (p52Shc lacking PTB domain as reference); details: for EC50: 10 pM to 100 uM, Octet RED 384
T1 sequence (P29353 1-473 isoform P29353-2): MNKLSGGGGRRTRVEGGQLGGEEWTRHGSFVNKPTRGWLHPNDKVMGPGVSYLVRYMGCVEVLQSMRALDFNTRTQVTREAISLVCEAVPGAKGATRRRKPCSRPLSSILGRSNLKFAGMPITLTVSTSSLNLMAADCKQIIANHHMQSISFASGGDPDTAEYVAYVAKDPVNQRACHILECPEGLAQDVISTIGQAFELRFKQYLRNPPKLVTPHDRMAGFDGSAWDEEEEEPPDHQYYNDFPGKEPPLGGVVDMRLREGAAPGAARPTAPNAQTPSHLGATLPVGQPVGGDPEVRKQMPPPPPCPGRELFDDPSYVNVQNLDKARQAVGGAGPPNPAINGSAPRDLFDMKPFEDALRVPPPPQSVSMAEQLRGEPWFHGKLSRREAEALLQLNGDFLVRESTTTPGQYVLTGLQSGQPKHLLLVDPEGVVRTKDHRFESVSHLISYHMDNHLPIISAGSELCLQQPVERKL
Experimental: as §1
FIGS. 9A-E illustrate that SrcI-1 binds into PTB domain of Shc protein. […] Sensograms were obtained and shown. […] Sigmoidal, variable slope fitting analysis was performed; EC50, hill slope, and top response were identified, and indicated. p-value was calculated by testing R^2 for significance for N=24; SrcI-1 was binding to Shc-PTB domain with EC50 of 3 μM.
FIGS. 11A-F illustrate details of interaction of idebenone analogs, idebenone and SrcI-1 with Shc protein. […]

[4] = tested on: phospho-Shc; assay: Western blot of phospho-Shc; assay type: cell-based
Experimental: Assays to identify compounds useful for preventing, reducing, delaying or inhibiting symptoms of impaired insulin sensitivity, glucose intolerance or obesity can be performed in vitro. Candidate agents can be contacted with a population of test cells in the presence of insulin (e.g., 1 nM, 5 nM, 10 nM, 100 nM or more). An agent that prevents, reduces, delays or inhibits one or more symptoms of impaired insulin sensitivity, glucose intolerance or obesity increases the ratio of levels of phospho-Akt-1 over phospho-Erk relative to a control ratio. The increase in ratio of levels of phospho-Akt-1 over phospho-Erk can be determined in comparison to a control population of cells that have not been contacted with insulin or have been contacted with a low concentration of insulin (e.g., less than 0.1 nM) or a population of cells contacted with insulin but not with the compound under test. Ratio of levels of phospho-Akt-1 over phospho-Erk can be determined using a Western blot among other methods. Inhibition of Shc activity can be quantitatively measured by assaying the reduction of stimulatory Shc phosphorylation, using a phospho-Shc specific antibody. Inhibition of Shc expression can be measured using a Western blot. […]

[5] = tested on: Erk activation in FL83B mouse liver cells; assay: Western blot of phospho-Erk activation in FL83B cells; assay type: cell-based
Source text: (§2) Western blot protocol of phospho-Akt (columns 2-4) and phospho-Erk (columns5-7). As explained above and in Example 4, Western blots of phospho-Akt and phospho-Erk are a more accurate and precise and quantitative measure of Akt phosphorylation than ICWB measurements. Insulin-dependent phospho-Akt is a direct measurement of insulin sensitivity, and we expect that Shc inhibitors will stimulate phospho-Akt more than phospho-Erk. All of the drugs listed in FIG. 5A stimulated insulin-dependent phospho-Akt at some concentration. Method. Mouse liver cells FL83B were plated at density of 400.000 cells per well of 6 well pate and cultivated for 48 hours, media was changed to DMEM, 25 mM glucose serum free and 16 hours later the cells were treated with drug at the indicated concentration for one hour. Control wells were treated with the vehicle (DMSO), in certain control wells the metabolic (Akt) insulin signaling was blocked with wortmannin. The cells were induced with indicated concentration of insulin for 10 minutes, total protein was extracted and the Western Blots were performed with indicated antibody as described above. […]

[6] = tested on: insulin-dependent activation of Akt in FL83B mouse liver cells; assay: Western blot of insulin-dependent phospho-Akt activation in FL83B cells; assay type: cell-based; details: for Insulin-dependent P-Akt signaling: Western blot
Source text: as §2
Sensogramms were obtained, and response [nm] for each concentration was plotted against log concentration of idebenone. […] Cells were stimulated with 0.2 nM insulin for 10 minutes, and Western analyzed for induction of Akt and ERK. […] Sigmoidal dose-response (variable slope) fitting analysis was performed, EC50, hill slope, and top response were identified, as described above, and are indicated on the graph. p-value was calculated by testing R^2 for significance for N=65. […] For ITT, the food was deprived at 7 am (the beginning of light phase), basal glucose was measured at 11 am, and insulin was administrated at 0.8 U/kg dose; blood glucose was recorded and expressed as % of baseline, and plotted against time. […]

[7] = tested on: corticosterone-treated mice; assay: Corticosterone-treated mice: blood glucose and ITT; assay type: in vivo, mouse
Experimental: Mice were kept pathogen-free throughout the study. All experimental procedures were approved by the Institutional Animal Care and Use Committee (IACUC) and were performed in compliance with local, state, and federal regulations. Diet was LM-485 (Teklad 7012) with nutrient composition: protein=19.9%, carbohydrates=53.7%, fat=5.7%. The source of lipid was soybean oil, protein-soybean meal, energy source-ground oats. Group of 36 13-month old male and female mice were tested with ITT before the study began and were started on Corticosterone in drinking water at 100 mg/L. Body weight and blood glucose were monitored. FIG. 12A illustrates experimental flow. Mice were started on corticosterone at day 1 and continued on it through the study. At day 13 the group was randomly split 1:1 and half were given idebenone as a mixture with peanut butter daily, another half was given placebo daily for another 5 days. All mice continued receiving corticosterone in drinking water for these 5 days, and then ITT were performed. For insulin tolerance tests mice were fasted for six hours and given intra-peritoneal injection of insulin (0.2 U/kg); then blood glucose was measured in the indicated time course (FIG. 12D). FIG. 12B bars are body weights in grams. […] (FIG. 12D) ITT of Control, CS+placebo, and CS+idebenone groups. […] Error bars are standard deviations. *=p<0.05. […]

EC50 ([3]; 24 point titration): 3000 nM
SMILES: COc1cc2ncnc(Nc3ccc(Oc4ccccc4)cc3)c2cc1OC [SrcI-1]
Score rank in screening assay [1]: scored in the top 35 out of 1689 molecules
Basal blood glucose ([2]; 2.5 mg/kg I.P. for 4 days): significantly decreased basal blood glucose
Insulin sensitivity in-vivo (ITT) ([2]; 2.5 mg/kg I.P. for 4 days): increased insulin sensitivity in-vivo
Binding to Shc-PTB ([3]; Octet RED 384 sensograms): binding to Shc-PTB in dose-dependent fashion
phospho-Shc activation [4]: inhibited phospho-Shc activation in dose-dependent manner
Erk activation [5]: decreased Erk activation
P-Akt/P-Erk ratio [5]: increasing the P-Akt/P-Erk ratio
Insulin-dependent P-Akt signaling [6]: stimulates insulin-dependent P-Akt signaling

EC50 ([3]; 48 point titration): 1.2 nM
SMILES: COC1=C(OC)C(=O)C(CCCCCCCCCCO)=C(C)C1=O [idebenone]
Blood glucose level ([7]; 18th day, corticosterone 100 mg/L in drinking water, idebenone daily 5 days, versus placebo): significant decrease comparing to placebo group in blood glucose level
Sensitivity to insulin in ITT ([7]; 40, 60, and 90 minutes after insulin 0.2 U/kg, versus corticosterone plus placebo): significantly more sensitive to insulin than corticosterone plus placebo
P-Akt/P-Erk ratio in primary screen ([1]; ICWB primary screen): increased P-Akt/P-Erk ratio
Insulin sensitivity in vivo (ITT) [2]: increased insulin sensitivity in vivo
Insulin sensitivity in vivo (ITT) ([2]; listed as Idebenone): significantly improving insulin sensitivity in-vivo
phospho-Shc activation [4]: decreased phospho-Shc in a dose-dependent manner
EC50 ([6]; Mus musculus, drug 1 hour, 0.2 nM insulin for 10 minutes, 65 points, read-out: EC50 of sensitizing cells to insulin (insulin dependent activation of Akt)): 3.3 nM
Insulin-dependent P-Akt signaling [6]: increased insulin-dependent phospho-Akt activation in a dose-dependent manner

SMILES: CN(C)C(=N)N=C(N)N [metformin]
Score rank in screening assay [1]: scored in the top 35 out of 1689 molecules
